Results on one compound are retold here after PMC10233829 (ACS Omega, 2023).

Data set [1] deals with S. aureus DNA gyrase (Staphylococcus aureus, UniProt P0A0K8+P20831). The experiment in a line: biochemical. Particulars: supercoiling of relaxed pBR322. The method, then:
The enzymatic assay was carried using commercial topoisomerases type II as previously described by Alt et al.[55] with some modifications.
Briefly, 1 U of the enzyme (gyrase or topo IV, Inspiralis. Norwich, UK) isolated from S. aureus converts […] of relaxed pBR322 DNA to the supercoiled form (gyrase) or decatenates 200 ng of kinetoplast DNA (topo IV). […] The reactions were terminated by adding an equal volume of STEB buffer (40% sucrose, 100 mM Tris–HCl pH 8, 10 mM EDTA, and 0.5 mg/mL bromophenol blue), followed by extraction with 1 volume of chloroform/isoamyl alcohol (24:1). The samples were vortexed and centrifuged, and 20 μL of the aqueous phase of each sample was loaded onto a 1% agarose gel and left for 30 min prior to electrophoresis to allow diffusion of salt. […] Gels were stained with ethidium bromide and visualized under UV light in a transilluminator (ChemiDoc MP, Bio Rad).

Data set [2] concerns the target T1, S. aureus topoisomerase IV (Staphylococcus aureus, UniProt P0C1S7+P0C1U9).
T1 construct: purchased Inspiralis, Norwich, UK
The experiment in a line: Topoisomerase IV decatenation assay. The data set is classed as biochemical. Particulars: decatenation of kinetoplast DNA; read-out: IC50 S. aureus topoisomerase IV (converted).
Method: Briefly, 1 U of the enzyme (gyrase or topo IV, Inspiralis. Norwich, UK) isolated from S. aureus converts 0.5 mg of relaxed pBR322 DNA to the supercoiled form (gyrase) or decatenates 200 ng of kinetoplast DNA (topo IV). […] The reactions were terminated by adding an equal volume of STEB buffer (40% sucrose, 100 mM Tris–HCl pH 8, 10 mM EDTA, and 0.5 mg/mL bromophenol blue), followed by extraction with 1 volume of chloroform/isoamyl alcohol (24:1). The samples were vortexed and centrifuged, and 20 μL of the aqueous phase of each sample was loaded onto a 1% agarose gel and left for 30 min prior to electrophoresis to allow diffusion of salt. […] Gels were stained with ethidium bromide and visualized under UV light in a transilluminator (ChemiDoc MP, Bio Rad).

Data set [3] concerns E. coli ATCC 25922. The experiment in a line: Bacterial growth curve assay (OD600, 18 h). It counts as cell-based, Escherichia coli. Particulars: E. coli ATCC 25922, 18 h.
Data set [4] relates to E. coli ATCC 25922 biofilm. As to the kind of experiment: Biofilm eradication assay (crystal violet). The data set is classed as cell-based, Escherichia coli. Particulars: 4 MIC. On the procedure: (§1) Three bacterial strains E. coli ATCC 25922, P. aeruginosa ATCC 15442, and S. aureus ATCC 6538 were used to assign biofilm eradication properties of compounds 5, 10, 11, and CP as the reference drug. To quantify the biomass of the bacteria biofilm, the crystal violet method was used with some modifications.[52] The bacteria were incubated to the mid-log phase, diluted to 103 cfu/mL in brain–heart infusion medium, and seeded in a 96-well plate. Bacterial biofilms were formed by overnight incubation at 37 °C with rotation at 140 rpm. After biofilm formation, all wells were washed with PBS to remove nonadherent bacteria cells. […] The biofilms with tested substances were incubated for 20 h at 37 °C with shaking at 140 rpm. The bacterial biofilm was stained with 0.1% (v/v) CV for 10 min. Afterward, the biofilm was rinsed with PBS and dried. To solubilize the adsorbed crystal violet, wells with stained biofilms were incubated in 30% acetic acid. To estimate the total biofilm biomass, optical density (OD) of the resulting solution was measured at 595 nm. Biofilm assays were repeated at least three times on different days, with two technical replicates assessed each time. A minimum eradication concentration (MBEC) was determined as the lowest concentration of compound, which could damage ≥50% of the formed biofilm structure.

Data set [5] has as its system S. aureus ATCC 6538 biofilm. As to the kind of experiment: Biofilm eradication assay (crystal violet). The data set is classed as cell-based, Staphylococcus aureus. Particulars: 4–2 MIC. The method, then:
as §1

Data set [6] concerns Staphylococci (standard strains). As to the kind of experiment: MIC, standard Gram-positive strains as a panel. It counts as cell-based, S. aureus, S. epidermidis. Particulars: standard Gram-positive strains of Table 1.
In data set [7] the test system is P. aeruginosa ATCC 15442 and E. coli ATCC 25922. The experiment in a line: MIC, standard Gram-negative rods as a panel. It counts as cell-based. As to conditions: P. aeruginosa ATCC 15442, E. coli ATCC 25922.

Each structure is given as a SMILES string. Converted amounts (≈) assume the structure as drawn.

Sequence of S. aureus DNA gyrase (P0A0K8 whole entry): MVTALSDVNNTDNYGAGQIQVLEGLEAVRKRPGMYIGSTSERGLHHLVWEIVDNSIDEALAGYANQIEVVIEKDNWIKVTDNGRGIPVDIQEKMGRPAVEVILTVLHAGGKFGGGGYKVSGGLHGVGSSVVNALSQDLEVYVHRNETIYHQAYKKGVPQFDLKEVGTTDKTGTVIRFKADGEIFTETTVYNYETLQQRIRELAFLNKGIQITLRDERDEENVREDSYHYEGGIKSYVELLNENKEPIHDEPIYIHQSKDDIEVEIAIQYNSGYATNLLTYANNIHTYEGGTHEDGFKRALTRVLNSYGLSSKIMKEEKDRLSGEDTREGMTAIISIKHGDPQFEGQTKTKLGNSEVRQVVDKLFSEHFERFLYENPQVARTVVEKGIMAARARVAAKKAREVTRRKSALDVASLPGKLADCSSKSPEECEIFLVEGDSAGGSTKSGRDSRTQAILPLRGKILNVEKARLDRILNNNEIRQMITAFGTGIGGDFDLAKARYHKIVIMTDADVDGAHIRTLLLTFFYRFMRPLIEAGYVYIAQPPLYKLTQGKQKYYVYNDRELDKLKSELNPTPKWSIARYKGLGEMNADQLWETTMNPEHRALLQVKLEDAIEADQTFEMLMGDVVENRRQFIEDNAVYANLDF
Sequence of S. aureus DNA gyrase (P20831 whole entry): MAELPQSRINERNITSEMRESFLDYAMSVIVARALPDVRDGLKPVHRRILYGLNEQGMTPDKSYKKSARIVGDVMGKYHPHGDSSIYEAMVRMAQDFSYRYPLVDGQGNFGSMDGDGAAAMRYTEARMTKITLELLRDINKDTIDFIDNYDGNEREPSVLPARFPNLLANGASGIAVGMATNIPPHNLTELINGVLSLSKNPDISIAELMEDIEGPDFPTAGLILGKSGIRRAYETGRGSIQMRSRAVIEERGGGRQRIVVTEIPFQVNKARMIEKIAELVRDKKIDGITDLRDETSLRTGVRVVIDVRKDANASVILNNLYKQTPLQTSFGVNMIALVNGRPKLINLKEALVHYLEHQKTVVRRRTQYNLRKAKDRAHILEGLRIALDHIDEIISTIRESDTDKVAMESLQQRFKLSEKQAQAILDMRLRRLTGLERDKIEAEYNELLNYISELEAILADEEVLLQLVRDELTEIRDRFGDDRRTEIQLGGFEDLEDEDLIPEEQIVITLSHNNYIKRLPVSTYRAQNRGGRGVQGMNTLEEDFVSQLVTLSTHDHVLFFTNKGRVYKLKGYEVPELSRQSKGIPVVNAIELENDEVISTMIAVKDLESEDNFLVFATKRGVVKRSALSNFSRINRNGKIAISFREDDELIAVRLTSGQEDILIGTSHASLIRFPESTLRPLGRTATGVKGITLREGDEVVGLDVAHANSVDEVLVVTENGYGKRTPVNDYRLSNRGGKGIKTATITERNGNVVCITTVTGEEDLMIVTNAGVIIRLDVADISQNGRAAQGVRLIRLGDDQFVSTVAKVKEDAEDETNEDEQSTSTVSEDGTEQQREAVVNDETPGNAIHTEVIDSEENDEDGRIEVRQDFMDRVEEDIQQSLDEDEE
T1 sequence (P0C1U9 whole entry): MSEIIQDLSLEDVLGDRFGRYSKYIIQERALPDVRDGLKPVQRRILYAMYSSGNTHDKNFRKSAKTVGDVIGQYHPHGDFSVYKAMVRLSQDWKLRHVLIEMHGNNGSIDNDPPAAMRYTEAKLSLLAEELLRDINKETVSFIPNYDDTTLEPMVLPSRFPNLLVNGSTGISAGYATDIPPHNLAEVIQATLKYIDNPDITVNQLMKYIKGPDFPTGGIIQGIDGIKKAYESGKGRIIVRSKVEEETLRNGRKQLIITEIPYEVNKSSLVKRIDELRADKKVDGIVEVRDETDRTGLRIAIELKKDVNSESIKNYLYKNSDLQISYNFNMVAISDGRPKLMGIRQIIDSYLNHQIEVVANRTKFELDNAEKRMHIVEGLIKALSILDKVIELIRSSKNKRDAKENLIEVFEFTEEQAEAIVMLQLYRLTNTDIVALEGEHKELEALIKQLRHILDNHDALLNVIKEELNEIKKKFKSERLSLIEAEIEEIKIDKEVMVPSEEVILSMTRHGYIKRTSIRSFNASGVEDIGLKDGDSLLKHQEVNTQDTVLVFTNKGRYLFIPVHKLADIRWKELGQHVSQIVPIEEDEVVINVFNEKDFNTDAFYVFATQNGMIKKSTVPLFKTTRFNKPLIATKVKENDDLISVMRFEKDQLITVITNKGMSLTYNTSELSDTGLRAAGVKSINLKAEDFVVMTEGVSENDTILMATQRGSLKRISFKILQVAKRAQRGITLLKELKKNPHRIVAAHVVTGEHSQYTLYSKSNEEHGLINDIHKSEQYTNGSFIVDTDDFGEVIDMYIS
T1 sequence (P0C1S7 whole entry): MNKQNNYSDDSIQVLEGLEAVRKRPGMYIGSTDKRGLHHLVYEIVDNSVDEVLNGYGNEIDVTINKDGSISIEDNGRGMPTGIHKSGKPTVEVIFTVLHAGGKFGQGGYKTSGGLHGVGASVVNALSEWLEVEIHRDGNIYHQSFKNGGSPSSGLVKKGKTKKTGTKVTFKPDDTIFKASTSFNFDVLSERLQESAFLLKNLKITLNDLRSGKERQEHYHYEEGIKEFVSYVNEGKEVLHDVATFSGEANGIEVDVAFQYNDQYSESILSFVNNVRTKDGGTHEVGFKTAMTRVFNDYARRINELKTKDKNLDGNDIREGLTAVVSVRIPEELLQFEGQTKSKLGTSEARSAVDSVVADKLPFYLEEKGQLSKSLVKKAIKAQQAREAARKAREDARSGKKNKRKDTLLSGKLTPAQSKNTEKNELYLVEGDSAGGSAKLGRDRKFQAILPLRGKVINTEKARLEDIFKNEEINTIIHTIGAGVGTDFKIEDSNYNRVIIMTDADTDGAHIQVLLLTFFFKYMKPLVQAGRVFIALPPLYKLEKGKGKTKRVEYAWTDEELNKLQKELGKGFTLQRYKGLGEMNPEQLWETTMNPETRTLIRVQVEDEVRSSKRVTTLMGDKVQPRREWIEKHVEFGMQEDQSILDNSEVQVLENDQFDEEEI

Compound `O=C(O)c1cn(C2CC2)c2cc(N3CCN(C(=O)CCCCBr)CC3)c(F)cc2c1=O` [Compound 11, 7-[4-(5-Bromopentanoyl)-piperazin-1-yl]-1-cyclopropyl-6-fluoro-4-oxo-1,4-dihydro-quinoline-3-carboxylic Acid] showed a melting point of 225.7 to 226.2 °C. The same compound gave an IC50 in data set [1] of 16.2 µM. Further, the half-inhibitory concentration (IC50) in data set [2] was 12.1 µM. The “concentration that inhibited bacterial cell growth” value in data set [3] was not below 0.025 µg/mL. Also, the “eradication of the biofilm formed by E. coli” value in data set [4] is “approx. 20%”. For the same compound, the “elimination of the mature biofilm of S. aureus ATCC 6538” value in data set [5] is listed as 19–25%. Further, the “fold more active than CP toward standard Staphylococci” value in data set [6] was 1.25–2.5 fold. For the same compound, the “share of CP potency kept against standard Gram-negative rods” value in data set [7] was determined as 60%. The MIC in data set [7] (read-out: MIC against standard Gram-negative rods (range over strains)) lay within 0.025 to 0.1 µg/mL (≈ 0.0506 to 0.202 µM).

As usually defined, the IC50 is the point on the concentration scale where inhibition reaches its midpoint. In general, MIC refers to the lowest concentration found to suppress growth. For orientation: melting point means the temperature, or range, at which the solid turns liquid.
